Laboratory results: ChEMBL document CHEMBL1201862, “PubChem BioAssay data set” (2004)
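How tested: cells in 96-well plates exposed to compound for 48 hours at five concentrations. GI50 is the concentration that inhibits growth by half.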 Active and inactive are the calls of the source. Rule as the data show it: active = GI50 up to about 1.1 µM and inactive = higher.

Key:
Assay in all cases: DTP human tumour cell line panel, 48 h
[1] = tested on: CAKI-1
[2] = tested on: HCT-116
[3] = tested on: HOP-62
[4] = tested on: IGROV-1
[5] = tested on: KM12
[6] = tested on: MDA-MB-435
[7] = tested on: MDA-N
[8] = tested on: MOLT-4
[9] = tested on: Malme-3M
[10] = tested on: NCI-H23
[11] = tested on: OVCAR-5
[12] = tested on: OVCAR-8
[13] = tested on: RXF 393
[14] = tested on: SK-MEL-28
[15] = tested on: SK-MEL-2
[16] = tested on: SK-OV-3
[17] = tested on: SR
[18] = tested on: SW-620
[19] = tested on: TK-10
[20] = tested on: U-251

| Compound | GI50 [1] | GI50 [2] | GI50 [3] | GI50 [4] | GI50 [5] | GI50 [6] | GI50 [7] | GI50 [8] | GI50 [9] | GI50 [10] | GI50 [11] | GI50 [12] | GI50 [13] | GI50 [14] | GI50 [15] | GI50 [16] | GI50 [17] | GI50 [18] | GI50 [19] | GI50 [20] |
| --- | --- | --- | --- | --- | --- | --- | --- | --- | --- | --- | --- | --- | --- | --- | --- | --- | --- | --- | --- | --- |
| c1ccc(CCCCNCc2cc(CNCCCCc3ccccc3)cc(CNCCCCc3ccccc3)c2)cc1 | 1.86 µM (inactive) | 1.97 µM (inactive) | 1.75 µM (inactive) | 0.815 µM (active) | 0.544 µM (active) | 1.21 µM (inactive) | 2.36 µM (inactive) | 0.251 µM (active) | 1.76 µM (inactive) | 1.28 µM (inactive) | 1.7 µM (inactive) | 0.782 µM (active) | 1.31 µM (inactive) | 0.948 µM (active) | 1.82 µM (inactive) | 1.97 µM (inactive) | 0.216 µM (active) | 0.301 µM (active) | 1.82 µM (inactive) | 1.12 µM (inactive) |
| C=CN1CCN(c2ccccc2)P1(=O)Oc1ccccc1 (stereo not given) | > 100 µM (inactive) | 48 µM (inactive) | > 100 µM (inactive) | 53.7 µM (inactive) | > 100 µM (inactive) | 90.6 µM (inactive) | 63.4 µM (inactive) | > 100 µM (inactive) | > 100 µM (inactive) | > 100 µM (inactive) | > 100 µM (inactive) | 89.3 µM (inactive) | 42.5 µM (inactive) | > 100 µM (inactive) | 54.6 µM (inactive) | > 100 µM (inactive) | > 100 µM (inactive) | > 100 µM (inactive) | 39.9 µM (inactive) | > 100 µM (inactive) |
| COC1=CC(=O)c2c(O)c3c(c(O)c2C1=O)C[C@](C)(O)C[C@@H]3O | 17.4 µM (inactive) | 2.61 µM (inactive) | 8.45 µM (inactive) | 4.61 µM (inactive) | 4.13 µM (inactive) | 1.88 µM (inactive) | 1.88 µM (inactive) | 7.8 µM (inactive) | 1.03 µM (active) | 2.43 µM (inactive) | 12.7 µM (inactive) | 4.07 µM (inactive) | 5.3 µM (inactive) | 7.05 µM (inactive) | 3.35 µM (inactive) | 14.1 µM (inactive) | 2.92 µM (inactive) | 3.92 µM (inactive) | 23.2 µM (inactive) | 4.69 µM (inactive) |
| CC1CC2OC(=N)C1(C#N)C2(C#N)C#N (stereo not given) | 7.57 µM (inactive) | 16.3 µM (inactive) | 16.8 µM (inactive) | 20.3 µM (inactive) | 39.3 µM (inactive) | 34 µM (inactive) | 16.3 µM (inactive) | 24.7 µM (inactive) | 15.8 µM (inactive) | 23.6 µM (inactive) | 21.6 µM (inactive) | 25.1 µM (inactive) | 16.1 µM (inactive) | 35.3 µM (inactive) | 20.3 µM (inactive) | > 100 µM (inactive) | 25.3 µM (inactive) | 18.2 µM (inactive) | 26.8 µM (inactive) | 27.9 µM (inactive) |
| C=C1C(=O)OC2C1C(OC(=O)/C(C)=C/C)CC1(C)C(=O)CCC(=C)C21 (stereo not given) | 4.79 µM (inactive) | 4.03 µM (inactive) | 16.9 µM (inactive) | 11.3 µM (inactive) | 16.4 µM (inactive) | 8.2 µM (inactive) | 5.07 µM (inactive) | 2.77 µM (inactive) | 5.85 µM (inactive) | 12.8 µM (inactive) | 14.8 µM (inactive) | 12.1 µM (inactive) | 2.83 µM (inactive) | 3.47 µM (inactive) | 11.9 µM (inactive) | 25.2 µM (inactive) | 2.06 µM (inactive) | 2.93 µM (inactive) | 4.89 µM (inactive) | 13.1 µM (inactive) |
| CCOC(=O)c1cn2c(n1)sc1c(Cl)c(Cl)ccc12 | 9.86 µM (inactive) | 5.69 µM (inactive) | 15.5 µM (inactive) | 13.8 µM (inactive) | 5.36 µM (inactive) | 3.31 µM (inactive) | 1.56 µM (inactive) | 8.71 µM (inactive) | 1.96 µM (inactive) | 29.4 µM (inactive) | 30.2 µM (inactive) | 15.9 µM (inactive) | 23.8 µM (inactive) | 20.8 µM (inactive) | 27.4 µM (inactive) | > 51.8 µM (inactive) | 2.55 µM (inactive) | 5.13 µM (inactive) | 24.4 µM (inactive) | 11 µM (inactive) |
